The values that follow come from PMC8080067, “Tight binding of cytochrome b5 to cytochrome P450 17A1 is a critical feature of stimulation of C21 steroid lyase activity and androgen synthesis” (The Journal of Biological Chemistry, 2021).

In one series the target is WT P450 17A1 (Homo sapiens, UniProt P05093). The series can be described thus: Steady-state kinetics of steroid 17α-hydroxylation and lyase reactions, reconstituted system. The protocol:
P450 catalytic activity assays to measure steroid hydroxylation and lyase reactions were carried out as described previously ([23], [37], [64]).
The reactions were initiated by adding an NADPH-regenerating system (final concentrations of 15 mM glucose 6-phosphate, 1.5 mM NADP^+, and 1 IU ml^−1 glucose 6-phosphate dehydrogenase) ([75]) and terminated by quenching and extracting with 2.0 ml CH2Cl2. Aliquots of the organic phases were dried and then dissolved in 100 μl of a CH3CN/H2O (1:1, v/v) mixture. […] The extraction procedure was then repeated, and the (Δ^4) reaction products were analyzed in a Waters Acquity UPLC system using a BEH C18 octadecylsilane column (2.1 mm × 100 mm, 1.7 μm). The reaction products were resolved using a mobile phase composed of solvents A (70% CH3OH, 30% H2O, v/v) and B (CH3CN), at a flow rate of 0.2 ml min^−1. The mobile phase linear gradient proceeded as follows: 0 to 1 min, 5% B; 4 min, 30% B; 4.5 min, 40% B; 4.55 to 6.75 min, 95% BA; and 7 to 10 min, 5% B. The reaction products were identified by coelution with commercial standards and quantified by the A243 peak areas. Steady-state kinetic parameters were estimated using nonlinear regression of hyperbolic fits in GraphPad Prism software, with equations used for kcat and the specificity constant kcat/Km ([76]): Y = (ksp ∗ X)/(1 + (ksp ∗ X/kcat)) and then deriving Km by division.

The target of another series is T1, P450 17A1 R347H variant (Homo sapiens, UniProt P05093, R347H).
T1 sequence (P05093 1-508 R347H): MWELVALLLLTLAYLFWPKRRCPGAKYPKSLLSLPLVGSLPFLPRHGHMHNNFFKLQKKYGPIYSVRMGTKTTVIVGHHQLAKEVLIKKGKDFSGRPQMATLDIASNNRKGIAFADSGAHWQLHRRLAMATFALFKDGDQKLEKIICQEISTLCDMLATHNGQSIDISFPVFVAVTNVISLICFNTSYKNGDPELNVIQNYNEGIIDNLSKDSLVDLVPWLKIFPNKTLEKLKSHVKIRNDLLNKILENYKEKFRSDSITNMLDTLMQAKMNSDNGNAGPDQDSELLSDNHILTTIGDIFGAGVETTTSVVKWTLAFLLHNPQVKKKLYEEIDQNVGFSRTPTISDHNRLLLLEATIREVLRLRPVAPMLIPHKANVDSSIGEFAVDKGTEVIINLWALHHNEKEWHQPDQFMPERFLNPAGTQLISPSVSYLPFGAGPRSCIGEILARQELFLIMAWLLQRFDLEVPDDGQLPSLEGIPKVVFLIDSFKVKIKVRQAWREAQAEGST
As to the kind of experiment: Substrate-binding spectral titration (type I, ΔA388-A423). The protocol:
(§1) The purified enzymes were diluted in 100 mM potassium phosphate buffer (pH 7.4) and divided in two 1.0-ml glass cuvettes. Spectra (350–500 nm) were recorded using an OLIS-DW2 spectrophotometer (On-Line Instrument Systems) with subsequent additions of the substrate. Differences in the absorbance between the wavelength maximum and minimum were plotted versus the substrate concentration ([44]). Kd values were calculated using nonlinear regression analysis in GraphPad Prism software (GraphPad) and the quadratic equation: Y=B+A/2E[(Kd+E+X)−(Kd+E+X)^2−4EX], set in Prism as: Y = B + (A/2) ∗ (1/E) ∗ ((Kd + E + X)-sqrt((Kd + E + X)^ˆ2 - (4 ∗ E ∗ X))).
(§2) Figure S2. […] Increasing concentrations of substrates were added to the sample and reference cuvettes in each case.

A further series has as its target T2, P450 17A1 R358Q variant (Homo sapiens, UniProt P05093, R358Q).
T2 sequence (P05093 1-508 R358Q): T1 sequence (P05093 1-508 R347H) with H347R, R358Q
Described as above. The protocol: as §1, §2

Another series concerns the target T3, P450 17A1 E305G variant (Homo sapiens, UniProt P05093, E305G).
T3 sequence (P05093 1-508 E305G): T1 sequence (P05093 1-508 R347H) with E305G, H347R
The series is described as above. The protocol:
as §1, §2

Molecules are shown by their SMILES. Numbering of substitutions follows the chain as printed. Read-outs that look alike come from different tables or passages of the source.

Sequence of WT P450 17A1 (P05093 whole entry): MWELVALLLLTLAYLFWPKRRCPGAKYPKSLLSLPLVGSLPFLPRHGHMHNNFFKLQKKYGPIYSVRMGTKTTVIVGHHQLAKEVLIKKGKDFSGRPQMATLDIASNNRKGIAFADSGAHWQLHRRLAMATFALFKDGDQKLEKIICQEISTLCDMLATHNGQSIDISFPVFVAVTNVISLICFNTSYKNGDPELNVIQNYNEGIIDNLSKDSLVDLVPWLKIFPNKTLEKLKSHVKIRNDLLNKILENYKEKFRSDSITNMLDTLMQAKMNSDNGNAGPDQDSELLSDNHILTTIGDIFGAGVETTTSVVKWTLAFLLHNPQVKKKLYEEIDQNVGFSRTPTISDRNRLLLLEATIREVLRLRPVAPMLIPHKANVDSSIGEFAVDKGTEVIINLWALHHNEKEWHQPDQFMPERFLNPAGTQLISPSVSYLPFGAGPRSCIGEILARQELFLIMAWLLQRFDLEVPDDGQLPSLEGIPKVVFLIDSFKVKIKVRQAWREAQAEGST
Sequence of WT P450 17A1 (P00167 whole entry partner): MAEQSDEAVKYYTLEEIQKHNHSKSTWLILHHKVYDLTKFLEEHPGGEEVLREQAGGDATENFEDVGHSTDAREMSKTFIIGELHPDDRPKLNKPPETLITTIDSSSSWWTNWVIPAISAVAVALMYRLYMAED

By Kd is commonly meant the constant that tells how readily two partners part at equilibrium. Higher therefore signals weaker binding. As to `CC(=O)[C@@]1(O)CCC2C3CC=C4C[C@@H](O)CC[C@]4(C)C3CC[C@@]21C` (stereo partly drawn) [17α-OH pregnenolone], at WT P450 17A1 (lyase reaction (conversion to androstenedione or DHEA), WT), the “% WT (kcat/Km)” value came to 100%. For the same molecule, the Kd worked out at 220 ± 100 nM at P450 17A1 R347H variant, 260 ± 120 nM at P450 17A1 R358Q variant and 410 ± 180 nM at P450 17A1 E305G variant.

`CC(=O)C1CCC2C3CC=C4C[C@@H](O)CC[C@]4(C)C3CC[C@]12C` (stereo partly drawn) [Pregnenolone]: at WT P450 17A1, the “% WT (kcat/Km)” value amounted to 100%. The Kd amounted to 120 ± 50 nM at P450 17A1 R347H variant, 150 ± 60 nM at P450 17A1 R358Q variant and 260 ± 80 nM on P450 17A1 E305G variant.

For `CC(=O)[C@H]1CC[C@H]2[C@@H]3CCC4=CC(=O)CC[C@]4(C)[C@H]3CC[C@]12C` [Progesterone], the “% WT (kcat/Km)” value at WT P450 17A1 is 100%. Moreover, the Kd at P450 17A1 R347H variant was determined as 230 ± 100 nM; on P450 17A1 R358Q variant, 260 ± 120 nM; on P450 17A1 E305G variant, 170 ± 80 nM.
